Experimental data from US7862798B2, “Vitamin-targeted imaging agents” (Endocyte, Inc., priority 2002, dated 2011).

System: FR-positive KB tumors
Test: Tissue distribution, KB tumor model (Example 16, Table 5)
Type: in vivo, nude mice
Conditions: for Blood / Heart / Kidney (one) / Liver & Gall Bladder / Lungs / Muscle / Spleen / Stomach, Intestines & Contents / Tumor: 99mTc-labelled conjugate, 4 hours post i.v.
Protocol: The protocols used in this example are similar to those described in Example 11. The ability of ^99mTc-EC11 (peptide-A1), ^99mTc-EC13 (peptide-A3), and ^99mTc-EC14 (peptide-A2) to target tumors in vivo was assessed using the FR-positive KB tumor model.
FR-positive KB tumor cells (0.25×10^6 per animal) were inoculated subcutaneously in the intracapsular region. Fourteen days after tumor cell inoculation, the animals (n=4/group) were injected intravenously with ^99mTc-EC11, ^99mTc-EC13, or ^99mTc-EC14 at the doses (about 12 μg/kg) of the conjugates shown in Table 5 below. Stocks of ^99mTc-EC11, ^99mTc-EC13, and ^99mTc-EC14 solutions were prepared on the day of use as described above. About a 20-fold excess of free folate (about 200 μg/kg) was co-administered to control animals (n=4/group). […] Selected tissues were removed, weighed, and counted in an automatic gamma counter to determine ^99mTc distribution. Uptake of the radiopharmaceutical in terms of percentage injected dose of wet weight tissue (% ID/g) was calculated by reference to standards prepared from dilutions of the injected preparation.

[1] = folic acid dihydrate co-injected (about 200 μg/kg)
[2] = folic acid dihydrate co-injected

SMILES | Blood [1] | Heart [1] | Kidney (one) [1] | Liver & Gall Bladder [1] | Lungs [1] | Muscle [1] | Spleen [1] | Stomach, Intestines & Contents [1] | Tumor [1] | Blood (no folic acid) | Heart (no folic acid) | Kidney (one) (no folic acid) | Liver & Gall Bladder (no folic acid) | Lungs (no folic acid) | Muscle (no folic acid) | Spleen (no folic acid) | Stomach, Intestines & Contents (no folic acid) | Tumor (no folic acid, KB tumor) | Tumor/Blood [2] | Tumor/Kidney [2] | other results
Nc1nc2ncc(CNc3ccc(C(=O)N[C@@H](CCC(=O)N[C@@H](CCC(=O)NC[C@H](N)C(=O)N[C@@H](CC(=O)O)C(=O)N[C@@H](CS)C(=O)O)C(=O)O)C(=O)O)cc3)nc2c(=O)[nH]1 [EC11] | 0.25 ± 0.01 Percentage of Injected 99mTc D | 0.36 ± 0.03 Percentage of Injected 99mTc D | 55.5 ± 2.3 Percentage of Injected 99mTc D | 1.6 ± 0.1 Percentage of Injected 99mTc D | 0.35 ± 0.03 Percentage of Injected 99mTc D | 0.38 ± 0.06 Percentage of Injected 99mTc D | 0.23 ± 0.01 Percentage of Injected 99mTc D | 1.1 ± 0.3 Percentage of Injected 99mTc D | 1.47 ± 0.24 Percentage of Injected 99mTc D | 0.21 ± 0.01 Percentage of Injected 99mTc D | 2.5 ± 0.3 Percentage of Injected 99mTc D | 67.8 ± 6.9 Percentage of Injected 99mTc D | 5.4 ± 1.4 Percentage of Injected 99mTc D | 1.2 ± 0.2 Percentage of Injected 99mTc D | 1.8 ± 0.1 Percentage of Injected 99mTc D | 0.38 ± 0.03 Percentage of Injected 99mTc D | 1.4 ± 0.1 Percentage of Injected 99mTc D | 2.95 ± 0.57 Percentage of Injected 99mTc D | 5.9 ± 0.9 | 0.027 ± 0.005 | Tumor/Liver [2]: 0.94 ± 0.09; Tumor/Muscle [2]: 3.9 ± 0.08; Tumor/Blood (no folic acid): 13.7 ± 2.1; Tumor/Kidney (no folic acid): 0.043 ± 0.005; Tumor/Liver (no folic acid): 0.57 ± 0.14; Tumor/Muscle (no folic acid): 1.6 ± 0.3
Nc1nc2ncc(CNc3ccc(C(=O)N[C@@H](CCC(=O)N[C@H](CCC(=O)NC[C@H](N)C(=O)N[C@@H](CC(=O)O)C(=O)N[C@@H](CS)C(=O)O)C(=O)O)C(=O)O)cc3)nc2c(=O)[nH]1 [EC14, Pte-D-Glu-D-Glu-βDpr-Asp-Cys] | 0.12 ± 0.02 Percentage of Injected 99mTc D | 0.24 ± 0.01 Percentage of Injected 99mTc D | 20.6 ± 2.4 Percentage of Injected 99mTc D | 0.66 ± 0.07 Percentage of Injected 99mTc D | 0.24 ± 0.02 Percentage of Injected 99mTc D | 0.26 ± 0.02 Percentage of Injected 99mTc D | 0.15 ± 0.01 Percentage of Injected 99mTc D | 0.50 ± 0.10 Percentage of Injected 99mTc D | 2.0 ± 0.5 Percentage of Injected 99mTc D | 0.19 ± 0.02 Percentage of Injected 99mTc D | 3.0 ± 0.5 Percentage of Injected 99mTc D | 44.2 ± 6.4 Percentage of Injected 99mTc D | 4.5 ± 1.0 Percentage of Injected 99mTc D | 1.6 ± 0.3 Percentage of Injected 99mTc D | 2.4 ± 0.4 Percentage of Injected 99mTc D | 0.41 ± 0.06 Percentage of Injected 99mTc D | 1.4 ± 0.1 Percentage of Injected 99mTc D | 5.57 ± 0.76 Percentage of Injected 99mTc D | 17.0 ± 4.5 | 0.10 ± 0.01 | Tumor/Liver [2]: 3.0 ± 0.6; Tumor/Muscle [2]: 7.7 ± 1.7; Tumor/Blood (no folic acid): 29.3 ± 5.2; Tumor/Kidney (no folic acid): 0.13 ± 0.03; Tumor/Liver (no folic acid): 1.3 ± 0.3; Tumor/Muscle (no folic acid): 2.4 ± 0.6
Nc1nc2ncc(CNc3ccc(C(=O)N[C@@H](CCC(=O)NC[C@@H]4[NH2+][99Tc-]56(=[O])[S]C[C@@H](C(=O)O)[N]5C(=O)[C@H](CO)[N]6C4=O)C(=O)O)cc3)nc2c(=O)[nH]1 [^99mTc-EC13] |  |  |  |  |  |  |  |  |  |  |  |  |  |  |  |  |  |  |  |  | accumulation in FR-positive KB tumors and kidneys on co-administration of free folate (about 20-fold excess of free folate): blocked
